{"source": "patent US8217074B2", "about": "“Use of sargachromenol” (Catholic University Industry Academic Cooperation Foundation, priority 2007, dated 2012)", "key": {"[1]": {"assay": "Cytotoxicity analysis by MTT cell viability assay", "format": "cell-based, human", "settings": "human, HaCaT keratinocytes", "method": "(§1) Cytotoxicity effect of the sargachromenol of the present invention isolated and purified in Example 1 on human keratinocytes HaCaT was investigated by MTT cell viability analysis.\n(§2) HaCaT cells were obtained from Professor N. Fusenig of the German Cancer Research Institute. The HaCaT cells were incubated in DMEM medium containing 10% FBS (Hyclone), 100 unit/mL penicillin and 100 μg/mL streptomycin at 37° C., in a 5% CO2 incubator. During the incubation, cell viability and number of cells were measured periodically using a hemacytometer (Neubauer, Germany) by the trypan blue exclusion method. In all experiments, initial cell viability was maintained over 95%.\n(§3) The cultured HaCaT cells were transferred to a 96-well plate, with 5×10^4 cells/well, and incubated at 37° C. in a 5% CO2 incubator for 24 hours. Then, the cultured HaCaT cells were treated with 0, 1, 2, 5 or 10 μg/mL sargachromenol, and further incubated at 37° C. in a 5% CO2 incubator for 24 hours. Then, without removing the medium, each well was treated with 5 mg/mL MTT reagent at a concentration of 20 μL/100 μL, and incubated for 2 hours. Subsequently, after removing the medium, 150 μL of DMSO was added to each well and cell viability was analyzed by measuring absorbance at 540 nm using an ELISA reader (Molecular Devices, USA). Cells non-treated with sargachromenol were used as control group. Cell viability was calculated as relative value of that of the control group (100%)."}, "[2]": {"system": "human keratinocytes HaCaT", "assay": "Cytotoxicity analysis by MTT cell viability assay", "format": "cell-based", "settings": "0, 1, 2, 5 or 10 μg/mL, 24 hours", "method": "as §1, §2, §3"}, "[3]": {"system": "human keratinocytes HaCaT", "assay": "Apoptosis by FACS analysis (Propidium Iodide staining)", "format": "cell-based", "settings": "24 hours", "method": "Apoptosis effect of the sargachromenol of the present invention on human keratinocytes was investigated by FACS and TUNEL analysis. First, for FACS analysis, HaCaT cells were cultured in the same manner as in Example 2-1, transferred to a 10 cm plate, with 2×10^6 cells/well, and incubated at 37° C. in a 5% CO2 incubator for 24 hours. After treating the cells with 0, 1, 2 or 5 μg/mL sargachromenol, they were incubated at 37° C. in a 5% CO2 incubator for 24 hours. Then, the cells were released from the plate using trypsin, and fixed using 4% paraformaldehyde. The fixed cells were treated with 70% alcohol to increase cell membrane permeability. Then, the cells were stained with Propidium Iodide (PI) solution for 30 minutes, and subjected to FACS analysis. Cells treated with DMSO only and not with sargachromenol were used as control group."}, "[4]": {"system": "human keratinocytes HaCaT", "assay": "Apoptosis by TUNEL analysis", "format": "cell-based", "settings": "increasing concentration, 24 hours", "method": "For TUNEL analysis, the cells were incubated for 24 hours as above, and transferred to a chamber slide using an ApopTag® fluorescein in situ apoptosis detection kit. After adhering the cells to the bottom well, they were washed with pH 7.4 PBS solution. The chamber slide was immersed in PBS solution of 4% paraformaldehyde for 30 minutes at room temperature in order to completely fix the cells. And, the cells were washed with PBS and immersed in blocking solution (1% H2O2 in methanol) for 30 minutes at room temperature in order to inhibit the action of endogenous peroxidase. Then, the cells were washed with PBS and immersed in 0.1% sodium citrate solution containing 0.1% Triton X-100 at 4° C. for 2 minutes in order to make the cells permeable. For labeling, the cells were washed with PBS two more times and diluted TUNEL reaction mixture was added to the slide. After incubating in a 37° C. humidified chamber for 60 minutes, the slide was washed with PBS. Then, the slide was further incubated in TBS solution containing 1% BSA and 5% FBS for 20 minutes. After adding anti-fluorescein antibody conjugated with horse-radish peroxidase to the culture medium and reacting at 37° C. for 1 hour, the slide was washed with PBS and DAB-matrix solution was added. Hematoxylin solution was added for counter staining. […]"}, "[5]": {"system": "caspase-8 and caspase-3 in human keratinocytes HaCaT", "assay": "Western blot of apoptosis-related factors", "format": "cell-based", "method": "Human keratinocytes HaCaT cells were cultured in the same manner as in Example 2-1 and transferred to a 10 cm plate, at 2×10^6 cells/well. After about 18 hours of serum starvation, the cells were treated with 0, 1, 2 or 5 μg/mL sargachromenol. 18 hours later, the cells were lysed using RIPA buffer [12 mM EDTA, 137 mM NaCl, 20 mM Tris-HCl (pH 8.0), 1 mM Na3VO4 (Sigma-Aldrich, USA) 10 mM NaF (Sigma), 1 mM PMSF (Sigma), 1% Triton X-100, 10% glycerol and protease inhibitor cocktail (Roche, Germany)]. The lysed cells were put in a 1.5 mL tube and, after pipetting, put on ice for 20 minutes. The lysate was centrifuged at 14000 rpm for 20 minutes, and protein was isolated from the supernatant. Sample concentration of the isolated protein was determined using a BCA protein analysis kit (Pierce, Rockford, Ill.) and electrophoresis (SDS-PAGE) was carried out. Western blot analysis was carried out on the protein isolated by the electrophoresis. Western blot analysis was carried out as follows. After electrophoresis of the sample, the protein was transferred from the gel to a polyvinylidene fluoride membrane (Pall Corporation). Then, after blocking the membrane at room temperature for 2 hours using 3% BSA solution (Amresco, USA), it was treated with primary antibodies and reaction was carried out at room temperature for 2 hours. The primary antibodies were anti-caspase-3 antibody, anti-caspase-8 antibody and anti-actin antibody (Cell Signaling Technology, Beverly, Mass.), which are antibodies associated in apoptosis-related signaling. After reaction with the primary antibodies, it was washed with TBS for about 15 minutes and further reacted for 45 minutes by treating with secondary antibodies. The secondary antibodies were goat anti-mouse antibody and goat anti-rabbit antibody (Zymed, San Francisco, USA). Then, after washing sufficiently with TBS for over 30 minutes, protein was identified using an ECL detection kit (Santa Cruz). Cells not treated with sargachromenol were used as control group."}, "[6]": {"system": "UVB irradiated human keratinocytes HaCaT", "assay": "MTT cell viability after sargachromenol pre-treatment and UVB irradiation", "format": "cell-based", "method": "Synergic apoptosis effect by UV and sargachromenol on human keratinocytes was investigated. HaCaT cells were cultured in the same manner as in Example 2-1 and transferred to a 6-well plate, at 3×10^5 cells/well. After about 12 hours of serum starvation, each well was pre-treated with 0, 0.5, 1, 2, 5 or 10 μg/mL sargachromenol, and UVB was irradiated at 150 J/m^2 (FS24T12/UVB/HO, Voltare Co., Fairfield, Conn., USA, 290-320 nm). 18 hours later, without removing the medium, each well was treated with 5 mg/mL MTT reagent at a concentration of 20 μL/100 μL, and incubated for 2 hours. Subsequently, after removing the medium, 150 μL of DMSO was added to each well and cell viability was analyzed by measuring absorbance at 540 nm using a spectrophotometer. Cells non-treated with sargachromenol were used as control group. Cell viability was calculated as relative value of that of the control group (100%)."}, "[7]": {"system": "caspase-8, caspase-9 and caspase-3 in human keratinocytes HaCaT", "assay": "Western blot of apoptosis-related factors after pre-treatment and UVB irradiation", "format": "cell-based", "method": "In Example 4, it was confirmed that UV further enhances the apoptosis of human keratinocytes by sargachromenol. Thus, it was investigated whether UV has effect on sargachromenol-induced apoptosis-related factors. First, human keratinocytes HaCaT cells were cultured in the same manner as in Example 2-1 and transferred to a 10 cm plate, at 2×10^6 cells/well. After about 18 hours of serum starvation, each well was pre-treated with 0, 2 or […] sargachromenol for 30 minutes and UVB was irradiated. 8 hours later, the cells were lysed using RIPA buffer [12 mM EDTA, 137 mM NaCl, 20 mM Tris-HCl (pH 8.0), 1 mM Na3VO4 (Sigma-Aldrich, USA) 10 mM NaF (Sigma), 1 mM PMSF (Sigma), 1% Triton X-100, 10% glycerol and protease inhibitor cocktail (Roche, Germany)]. Electrophoresis (SDS-PAGE) was carried out after determination of protein concentration. Western blot analysis was carried out on the isolated protein as in Example 3. Cells not treated with sargachromenol were used as control group."}, "nerve cell": {"system": "nerve cell", "settings": "Chi Kwan Tsang et al, Neuroscience, 2005; cited from earlier work"}}}
{"smiles": "CC(C)=CCC/C(=C/CC/C(C)=C/CCC1(C)C=Cc2cc(O)cc(C)c2O1)C(=O)O", "note": "(centres unmarked) [sargachromenol]", "values": [{"measurement": "viability at 24 h, 5 μg/mL", "setting": "[1]; 5 μg/mL sargachromenol only, without UV irradiation", "result": "≥ 40", "unit": "%"}, {"measurement": "cytotoxicity at 24 h, 5 μg/mL", "setting": "[1]; 5 μg/mL sargachromenol, 24 hours, relative to control group (100%), no UV, read-out: reduction of cell viability", "result": 40, "unit": "%"}, {"measurement": "cell viability, concentration dependence", "setting": "[2]", "result": "cell viability decreased as the concentration of sargachromenol increased"}, {"measurement": "apoptosis effect, concentration comparison (FACS)", "setting": "[3]; 5 μg/mL versus 1 μg/mL", "result": "better at treatment with 5 μg/mL than 1 μg/mL"}, {"measurement": "apoptosis effect versus control group (FACS)", "setting": "[3]; 1, 2 or 5 μg/mL, control DMSO only", "result": "superior in the cells treated with sargachromenol than in the control group"}, {"measurement": "number of TUNEL-positive (dead) cells", "setting": "[4]", "result": "increased as the concentration of the sargachromenol of the present invention increased"}, {"measurement": "cleavage of caspase-8 and caspase-3", "setting": "[5]; 0, 1, 2 or 5 μg/mL, higher concentration, no UV", "result": "caspase-8 and caspase-3 were cleaved"}, {"measurement": "quantity of cleaved protein", "setting": "[5]; 0, 1, 2 or 5 μg/mL, no UV", "result": "increased in a concentration-dependent manner"}, {"measurement": "activation of caspase", "setting": "[5]; 5 μg/mL sargachromenol only, 18 hours later", "result": "Activation of caspase was observed"}, {"measurement": "viability at 1 µg/mL", "setting": "[6]; Homo sapiens, HaCaT, light or radiation study, 1 μg/mL pre-treatment, UVB 150 J/m^2, 18 hours later", "result": "~25", "unit": "%"}, {"measurement": "apoptosis versus cells without UV", "setting": "[6]; pre-treated with sargachromenol and irradiated with UV, compared with same condition without UV", "result": "much more increased apoptosis"}, {"measurement": "activation of caspase", "setting": "[7]; 2 or 5 μg/mL sargachromenol only, no UVB, 8 hours", "result": "activation of caspase was not observed"}, {"measurement": "cleaved caspases", "setting": "[7]; pre-treated with sargachromenol and irradiated with UVB, 8 hour later", "result": "cleaved caspase-8, caspase-9 and caspase-3 were observed"}, {"measurement": "NGF (nerve growth factor)-dependent nerve cell growth promoting activity", "setting": "nerve cell", "result": "reported to have NGF (nerve growth factor)-dependent nerve cell growth promoting activity"}]}
